Consider two sequences from paper PMC8704389, “New Insights into the Hypotensins from Tityus serrulatus Venom: Pro-Inflammatory and Vasopeptidases Modulation Activities” (Toxins, 2021).

No end group written: not given here. Some results are limits rather than exact numbers.

Data set [1] deals with T1, ACE.
T1 construct: Angiotensin Converting Enzyme (ACE) from rabbit lung; purchased Sigma-Aldrich; host or cells: rabbit lung tissue
Nature of the data set: Stability of peptides against ACE (susceptibility to hydrolysis, RP-HPLC). The class given is in vitro ADME. Particulars: rabbit, isolated ACE (angiotensin-converting enzyme); 30 µM peptide, ACE 3.0 ng, Tris HCl 100 mM, NaCl 50 mM, ZnCl2 10 µM, pH 7.0, 4 h, 37 °C, RP-HPLC C18, UV 214 nm; read-out: hydrolysis products after incubation with ACE. As for the experimental part:
Figure 1 Analysis of the susceptibility to hydrolysis of the hypotensins over the vasopeptidases NEP and ACE. Incubations were carried out in Tris HCl 100 mM, NaCl 50 mM and ZnCl2 10 µM, pH 7.0, for the ACE assays, and, for the NEP assays, in Tris HCl 50 mM, pH 7.5 buffer, for four hours at 37 °C. (A) TsHpt-I control (black line) and after incubation with NEP (red line). (B) TsHpt-II control (black line) and TsHpt-II incubated with NEP (red line). (C) TsHpt-I control (black line) and incubated with ACE (red line). (D) TsHpt-II control (black line) and after incubation with ACE (red line). The samples of negative and experimental controls (A) TsHpt-I and (B) TsHpt-II are shown on the left and right, respectively. The hydrolysis products were considered ≤5%. The gradient used was 20% to 60% solvent B in 20 min, and 60% to 100% solvent B in 5 min (flow 1 mL/min, absorbance at 214 nm). Restek Ultra C-18 5 µm column, 250 × 4.6 mm.
The synthetic peptides TsHpt-I and TsHpt-II (30 µM) were incubated with ACE (3.0 ng), in Tris HCl 100 mM, NaCl 50 mM and ZnCl2 10 µM, pH 7.0 buffer, and NEP (1.5 ng), in Tris HCl 50 mM, pH 7.5 buffer, at 37 °C for 4 h. Samples containing only the synthetic peptides were used as the negative control. After incubation, samples were analyzed by reverse phase chromatography on RP-HPLC (Shimadzu, Kyoto, Japan), using a Restek Ultra C-18 column (5 µm, 250 × 4.6 mm). […]

The test system of data set [2] is murine peritoneal macrophages. Kind of data set: Cell viability of murine peritoneal macrophages, MTT method. The format is cell-based, BALB/c mice. Particulars: 24 h. As for the experimental part:
Figure 3 Cytotoxic effect of hypotensins I and II on murine peritoneal macrophages in vitro. Peritoneal exudate macrophages from naïve BALB/c mice were cultured for 24 h in the presence of TsHpt-I (A) and -II (B) at concentrations of 10 µg/mL, 50 µg/mL and 100 µg/mL. Cells cultured with medium alone or in the presence of 5 µg/mL LPS were used as the controls. Cell viability was determined by the MTT method. The results represent the mean ± SD of two independent experiments performed in triplicate. * p < 0.05.
Peritoneal exudate cells (BALB/c naïve mice, n = 6) were collected by two washes with 5 mL of RPMI medium. The cells obtained were washed twice with RMPI medium, at 400 g, for 10 min, at 18 °C, and resuspended in R10 medium (RPMI + 10% fetal cow serum). After counting in a Neubauer chamber, in the presence of Trypan blue, the cell concentration was adjusted to 2 × 10^6 cells/mL. Cells were distributed into 96-well culture plates (2 × 10^5 cells/100 µL/well) and incubated for 2 h at 37 °C and 5% CO2. After incubation, non-adherent cells were discarded, and adherent cells (macrophages) were resuspended in R10 medium containing the respective tested stimuli, at different concentrations, in triplicates, in a final volume of 200 µL/well. Cells resuspended in R10 medium were used as a negative control, and cells stimulated with LPS (5 µg/mL) as a positive control. Cells were then incubated for 24 h at 37 °C and 5% CO2. After this period, the culture supernatants were collected and stored at −80 °C, for subsequent dosage of cytokines, and cell viability was determined by MTT assay.
After a 24-h period of incubation of cells with hypotensins (10 µg/mL, 50 µg/mL and 100 µg/mL), MTT assays were performed, consisting of the addition of 100 µL of R10 containing 0.5 mg/mL of tetrazolium salt 3-(4.5-dimethylthiazol-2-yl)-2,5-diphenyltetrazolium bromide (MTT) in all wells, followed by a new incubation, under the same conditions, for 4 h. Then, the supernatants were discarded, and 100 µL/well of DMSO were added to dissolve the formed crystals. Absorbance was determined in a spectrophotometer at 540 nm. Cell viability was calculated based on the absorbances of the samples and the negative control (cells cultivated only with R10).

For data set [3], the target named is T2, NEP (Homo sapiens, UniProt P08473).
T2 construct: gift of Prof; Adriana Carmona, Department of Biophysics, UNIFESP-EPM
Nature of the data set: Characterization of NEP inhibition (Ki and mechanism, Lineweaver-Burk). The format is biochemical. As for the experimental part: Figure 2 Lineweaver–Burk plot of NEP inhibition by TsHpt-I. The inhibition constant (Ki) was determined using four Abz-RGFK-EDDnp substrate concentrations (4 μM, 6 μM, 8 μM and 10 μM), with variation in the concentration of TsHpt-I (3 μM and 4 μM), keeping the amount of enzyme fixed (1.5 ng). The experiment was performed in triplicate.
To determine the inhibition constant (Ki) of TsHpt-I over NEP, four concentrations of Abz-RGFK (Dnp)-OH (4 µM, 6 µM, 8 µM and 10 µM) and 3 µM and 4 µM of TsHpt-I were tested using 1.5 ng of peptidase in 100 µL of final volume of Tris HCl pH 7.5. The Km value of the substrate used was determined to be 14 µM [27]. Controls without the TsHpt-I were also performed in all assays. The reactions were monitored as described above (item 5.2). The Lineweaver–Burk plot was constructed (1/V × 1/(S)) according to the presented mechanism. The Ki was calculated as described by Segel. All assays were performed in triplicate.

Data set [4] deals with normotensive Wistar rats. Particulars: by potentiating bradykinin; cited from earlier work. The source says:
Among the linear peptides we have the hypotensins (TsHpt), identified from TsV proteomic analyzes. Both peptides are made up of 25 amino acid residues that contain two consecutive prolines in their C-terminal portion and a punctual difference between TsHpt-I and -II, which is the residue at position 15, being a glutamine in TsHpt-I and a glutamic acid in TsHpt-II. […] The hypothesis is that the vasodilation effect is related to the releas ...

Setting [5] is: 10 µg/mL, control (medium) = 100%, two independent experiments in triplicate.

T2 sequence (P08473 2-750): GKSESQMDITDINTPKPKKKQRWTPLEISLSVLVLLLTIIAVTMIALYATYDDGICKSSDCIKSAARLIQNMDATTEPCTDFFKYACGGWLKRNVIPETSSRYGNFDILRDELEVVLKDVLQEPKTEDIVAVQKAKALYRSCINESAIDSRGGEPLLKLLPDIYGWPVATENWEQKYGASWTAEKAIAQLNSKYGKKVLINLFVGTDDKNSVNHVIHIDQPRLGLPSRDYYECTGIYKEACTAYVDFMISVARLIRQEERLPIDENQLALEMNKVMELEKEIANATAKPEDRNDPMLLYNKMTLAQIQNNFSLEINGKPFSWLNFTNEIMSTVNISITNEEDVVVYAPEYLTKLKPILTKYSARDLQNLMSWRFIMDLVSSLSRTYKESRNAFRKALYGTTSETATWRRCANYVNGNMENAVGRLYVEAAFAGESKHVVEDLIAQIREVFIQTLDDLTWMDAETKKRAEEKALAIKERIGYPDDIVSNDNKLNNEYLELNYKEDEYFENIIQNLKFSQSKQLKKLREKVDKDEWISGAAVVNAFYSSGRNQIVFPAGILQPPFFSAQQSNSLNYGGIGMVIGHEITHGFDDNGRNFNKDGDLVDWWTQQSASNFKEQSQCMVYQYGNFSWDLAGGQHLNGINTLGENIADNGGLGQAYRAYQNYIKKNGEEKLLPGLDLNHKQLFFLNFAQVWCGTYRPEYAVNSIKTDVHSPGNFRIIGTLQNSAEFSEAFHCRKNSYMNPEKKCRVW

As to AEIDFSGIPEDIIKEIKETNAKPPA [TsHpt-II], the metabolised at 4 h, 30 µM in data set [1] was ≤ 5%. For the same sequence, the cell viability result is “about 75%” in data set [2] (setting [5]) and “not able to decrease cellular viability” in data set [2] (100 µg/mL).

The Ki is a measure of affinity in units of concentration, obtained from inhibition or displacement. Read a low Ki as a stronger hold on the target. Regarding AEIDFSGIPEDIIKQIKETNAKPPA [TsHpt-I], the affinity in data set [3] corresponds to a Ki of 4.35 µM. Also, the “mechanism of inhibition of NEP” value in data set [3] (Lineweaver-Burk plot, triplicate) was “non-competitive inhibitor”. Further, the metabolised at 4 h, 30 µM in data set [1] is ≤ 5%. Besides, the cell viability result in data set [2] (setting [5]) was “about 75%”; in data set [2] (100 µg/mL), “not able to decrease cellular viability”. In addition, the hypotensive activity result in data set [4] was “able to exert hypotensive activity”.
